Here are results for 51 molecules from patent US20260158017A1, “KIF18A INHIBITOR” (WIGEN BIOMEDICINE TECHNOLOGY (SHANGHAI) CO., LTD., priority 2021, published 2026).

Bounds are passed on as bounds.

T1 sequence (Q8NI77 1-467): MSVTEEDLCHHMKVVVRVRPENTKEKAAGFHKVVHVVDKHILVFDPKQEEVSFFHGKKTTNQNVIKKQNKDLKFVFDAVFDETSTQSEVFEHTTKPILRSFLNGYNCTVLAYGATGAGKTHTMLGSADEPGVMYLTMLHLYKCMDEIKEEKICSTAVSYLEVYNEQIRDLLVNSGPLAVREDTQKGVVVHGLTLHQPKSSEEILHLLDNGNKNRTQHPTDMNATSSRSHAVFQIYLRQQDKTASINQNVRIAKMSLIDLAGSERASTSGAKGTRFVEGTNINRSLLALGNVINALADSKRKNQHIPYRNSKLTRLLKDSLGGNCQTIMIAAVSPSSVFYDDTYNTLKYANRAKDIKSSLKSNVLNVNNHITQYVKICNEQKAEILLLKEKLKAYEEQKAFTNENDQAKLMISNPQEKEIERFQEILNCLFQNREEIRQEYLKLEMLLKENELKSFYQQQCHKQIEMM
T1 sequence (P02550 whole entry partner): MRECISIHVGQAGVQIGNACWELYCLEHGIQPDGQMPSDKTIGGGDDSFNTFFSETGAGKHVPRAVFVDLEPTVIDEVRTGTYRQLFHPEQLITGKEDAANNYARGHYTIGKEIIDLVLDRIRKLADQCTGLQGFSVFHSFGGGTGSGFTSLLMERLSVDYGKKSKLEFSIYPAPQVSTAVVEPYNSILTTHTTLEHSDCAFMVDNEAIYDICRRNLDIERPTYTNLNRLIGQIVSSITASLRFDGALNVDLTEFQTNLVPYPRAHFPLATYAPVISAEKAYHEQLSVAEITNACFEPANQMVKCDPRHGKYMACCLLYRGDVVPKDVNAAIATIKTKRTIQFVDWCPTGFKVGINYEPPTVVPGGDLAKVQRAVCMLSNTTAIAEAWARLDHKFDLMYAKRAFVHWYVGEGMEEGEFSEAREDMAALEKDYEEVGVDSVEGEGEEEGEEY
T1 sequence (P02554 whole entry partner): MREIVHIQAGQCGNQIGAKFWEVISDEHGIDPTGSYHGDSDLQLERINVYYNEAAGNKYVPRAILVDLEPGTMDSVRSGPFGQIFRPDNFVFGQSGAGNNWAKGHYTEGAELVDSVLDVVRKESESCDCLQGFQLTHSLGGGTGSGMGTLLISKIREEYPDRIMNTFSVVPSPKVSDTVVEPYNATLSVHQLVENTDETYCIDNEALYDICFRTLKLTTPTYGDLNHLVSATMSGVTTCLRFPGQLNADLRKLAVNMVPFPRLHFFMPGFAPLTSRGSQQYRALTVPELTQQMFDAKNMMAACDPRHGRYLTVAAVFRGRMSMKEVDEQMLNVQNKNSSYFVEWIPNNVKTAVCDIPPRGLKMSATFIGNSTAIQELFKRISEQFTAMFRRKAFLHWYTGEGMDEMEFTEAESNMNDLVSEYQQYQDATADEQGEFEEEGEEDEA

The test addresses T1, Recombinant human KIF18A (1-467His-tagged) protein (Homo sapiens, UniProt Q8NI77).
T1 construct: Recombinant human KIF18A (1-467His-tagged) protein; His; made in house
The test is described as follows: KIF18A enzyme assay (microtubule-stimulated ATPase activity, ADP-Glo). The test is classed as biochemical. The following applies: 30 nM KIF18A, 75 μM ATP, 30 μg/mL pig microtubules; read-out: Inhibitory activity against KIF18A IC50. The procedure: In Vitro Assay of the Compounds of the Present Invention for Inhibiting Enzymatic Activity of KIF18A
KIF18A enzyme assay: The enzymatic activity of KIF18A after treatment with the compounds was measured by an assay of microtubule-stimulated ATPase activity. ADP generated from the ATPase reaction was measured in this assay. The compounds were serially diluted 2-fold in DMSO over a range of 22 concentration points. […] Concentrations of KIF18A protein, microtubules, and ATP in the reaction were optimized for a standardized homogenous enzyme assay using an ADP-Glo kinase/ATPase assay kit. A reaction buffer [(15 mM Tris, pH 7.5), 10 mM MgCl2, 0.01% PluronicF-68, 1 μM paclitaxel, and 30 μg/mL pig microtubules] was prepared. […] The resulting reaction mixture was incubated at room temperature for another 15 min. 5 μL of ADP-Glo reagent and 2.5 μL of the reaction mixture were mixed and the resulting mixture was incubated at room temperature for 40 min. 10 μL of ADP-Glo detection reagent was added and the mixture was incubated at room temperature for 40 min. Luminescence was read using a microplate reader and compared with that of the DMSO group, and then the inhibition percentages and IC50 values of the compounds were calculated.
For orientation: In ADP-Glo the light output rises with the ADP produced.
Take `O=C(Nc1ccc(S(=O)(=O)NCCO)cc1N1CCC2(CC1)CC2)c1ccc([N+](=O)[O-])c(N2CCC(F)CC2)c1` [Compound 57]: the half-inhibitory concentration (IC50) (in general, the concentration that inhibits the measured activity by half) is 100 to 500 nM. The value for `O=C(Nc1ccc(S(=O)(=O)NCCO)cc1N1CCC2(CC1)CC2)c1ccc([N+](=O)[O-])c(N2CC3CC3C2)c1` (stereo not drawn) [Compound 58] was 100 to 500 nM; that for `CC(C)(CO)Nc1cc(C(=O)Nc2ccc(S(=O)(=O)NCCO)cc2N2CCC3(CC2)CC3)ccc1[N+](=O)[O-]` [Compound 59] was 100 to 500 nM. The value for `O=C(Nc1ccc(S(=O)(=O)NCCO)cc1N1CCC2(CC1)CC2)c1ccc([N+](=O)[O-])c(N2CCOCC2)c1` [Compound 60] was 100 to 500 nM; that for `C[C@@H](CO)NS(=O)(=O)c1ccc(NC(=O)c2ccc([N+](=O)[O-])c(N3CCC(F)(F)CC3)c2)c(N2CCC3(CC2)CC3)c1` [Compound 61] was 100 to 500 nM. To `C[C@H](CO)NS(=O)(=O)c1ccc(NC(=O)c2ccc([N+](=O)[O-])c(N3CCC(F)(F)CC3)c2)c(N2CCC3(CC2)CC3)c1` [Compound 62] belongs 100 to 500 nM; to `C[C@@H]1CN(c2cc(C(=O)Nc3ccc(S(=O)(=O)N[C@@H](C)CO)cc3N3CCC4(CC3)CC4)ccc2[N+](=O)[O-])CCO1` [Compound 63], 100 to 500 nM. With `C[C@H](CO)NS(=O)(=O)c1ccc(NC(=O)c2ccc([N+](=O)[O-])c(N3CCO[C@H](C)C3)c2)c(N2CCC3(CC2)CC3)c1` [Compound 64], the IC50 is 100 to 500 nM. The value for `C[C@@H]1CN(c2nc(NC(=O)c3ccc(NS(=O)(=O)CCO)cc3N3CCC4(CC3)CC4)ccc2[N+](=O)[O-])CCO1` [Compound 66] was no more than 100 nM. To `C[C@H]1CN(c2nc(NC(=O)c3ccc(NS(=O)(=O)CCO)cc3N3CCC4(CC3)CC4)ccc2[N+](=O)[O-])CCO1` [Compound 67] belongs no more than 100 nM. For `O=C(Nc1ccc([N+](=O)[O-])c(N2CC(F)(F)C2)n1)c1ccc(NS(=O)(=O)CCO)cc1N1CCC2(CC1)CC2` [Compound 68], the IC50 is no more than 100 nM. For the molecule `O=C(Nc1ccc([N+](=O)[O-])c(OCCC(F)(F)F)n1)c1ccc(NS(=O)(=O)CCO)cc1N1CCC2(CC1)CC2` [Compound 69], the IC50 is no more than 100 nM.

Consider `O=C(Nc1ccc([N+](=O)[O-])c(N2CCC3(CC3)C2)n1)c1ccc(NS(=O)(=O)CCO)cc1N1CCC2(CC1)CC2` [Compound 70], for which the IC50 was no more than 100 nM. As for `O=C(Nc1ccc([N+](=O)[O-])c(OC2CCC2)n1)c1ccc(NS(=O)(=O)CCO)cc1N1CCC2(CC1)CC2` [Compound 71], the IC50 was no more than 100 nM. Consider `CC1(F)CCN(c2nc(NC(=O)c3ccc(NS(=O)(=O)CCO)cc3N3CCC4(CC3)CC4)ccc2[N+](=O)[O-])C1` (stereo not drawn) [Compound 72], for which the IC50 is no more than 100 nM. To `O=C(Nc1ccc([N+](=O)[O-])c(N2CCC(F)CC2)n1)c1ccc(NS(=O)(=O)CCO)cc1N1CCC2(CC1)CC2` [Compound 73] belongs no more than 100 nM; to `O=C(Nc1ccc([N+](=O)[O-])c(N2CC3CC3C2)n1)c1ccc(NS(=O)(=O)CCO)cc1N1CCC2(CC1)CC2` (stereo not drawn) [Compound 74], no more than 100 nM. To `CC(C)(CO)Nc1nc(NC(=O)c2ccc(NS(=O)(=O)CCO)cc2N2CCC3(CC2)CC3)ccc1[N+](=O)[O-]` [Compound 75] belongs no more than 100 nM. The value for `O=C(Nc1ccc([N+](=O)[O-])c(N2CCOCC2)n1)c1ccc(NS(=O)(=O)CCO)cc1N1CCC2(CC1)CC2` [Compound 76] was no more than 100 nM; that for `C[C@@H](CO)S(=O)(=O)Nc1ccc(C(=O)Nc2ccc([N+](=O)[O-])c(N3CCC(F)(F)CC3)n2)c(N2CCC3(CC2)CC3)c1` [Compound 77] was no more than 100 nM; that for `C[C@H](CO)S(=O)(=O)Nc1ccc(C(=O)Nc2ccc([N+](=O)[O-])c(N3CCC(F)(F)CC3)n2)c(N2CCC3(CC2)CC3)c1` [Compound 78] was no more than 100 nM.

Take `C[C@@H]1CN(c2nc(NC(=O)c3ccc(NS(=O)(=O)[C@@H](C)CO)cc3N3CCC4(CC3)CC4)ccc2[N+](=O)[O-])CCO1` [Compound 79]: the concentration for half-maximal inhibition (IC50) was no more than 100 nM. The value for `C[C@@H]1CN(c2nc(NC(=O)c3ccc(NS(=O)(=O)[C@H](C)CO)cc3N3CCC4(CC3)CC4)ccc2[N+](=O)[O-])CCO1` [Compound 80] was no more than 100 nM. The value for `O=C(Nc1ccc([N+](=O)[O-])c(N2CCC(F)(F)CC2)n1)c1ccc(S(=O)(=O)NCCO)cc1N1CCC2(CC1)CC2` [Compound 81] was no more than 100 nM; that for `C[C@@H]1CN(c2nc(NC(=O)c3ccc(S(=O)(=O)NCCO)cc3N3CCC4(CC3)CC4)ccc2[N+](=O)[O-])CCO1` [Compound 82] was no more than 100 nM. The value for `C[C@H]1CN(c2nc(NC(=O)c3ccc(S(=O)(=O)NCCO)cc3N3CCC4(CC3)CC4)ccc2[N+](=O)[O-])CCO1` [Compound 83] was no more than 100 nM; that for `O=C(Nc1ccc([N+](=O)[O-])c(N2CC(F)(F)C2)n1)c1ccc(S(=O)(=O)NCCO)cc1N1CCC2(CC1)CC2` [Compound 84] was no more than 100 nM; that for `O=C(Nc1ccc([N+](=O)[O-])c(OCCC(F)(F)F)n1)c1ccc(S(=O)(=O)NCCO)cc1N1CCC2(CC1)CC2` [Compound 85] was no more than 100 nM. Turning to `O=C(Nc1ccc([N+](=O)[O-])c(N2CCC3(CC3)C2)n1)c1ccc(S(=O)(=O)NCCO)cc1N1CCC2(CC1)CC2` [Compound 86], the IC50 was no more than 100 nM. To `O=C(Nc1ccc([N+](=O)[O-])c(OC2CCC2)n1)c1ccc(S(=O)(=O)NCCO)cc1N1CCC2(CC1)CC2` [Compound 87] belongs no more than 100 nM. The value for `CC1(F)CCN(c2nc(NC(=O)c3ccc(S(=O)(=O)NCCO)cc3N3CCC4(CC3)CC4)ccc2[N+](=O)[O-])C1` (stereo not drawn) [Compound 88] was no more than 100 nM; that for `O=C(Nc1ccc([N+](=O)[O-])c(N2CCC(F)CC2)n1)c1ccc(S(=O)(=O)NCCO)cc1N1CCC2(CC1)CC2` [Compound 89] was no more than 100 nM.

As for `O=C(Nc1ccc([N+](=O)[O-])c(N2CC3CC3C2)n1)c1ccc(S(=O)(=O)NCCO)cc1N1CCC2(CC1)CC2` (stereo not drawn) [Compound 90], the IC50 is no more than 100 nM. To `CC(C)(CO)Nc1nc(NC(=O)c2ccc(S(=O)(=O)NCCO)cc2N2CCC3(CC2)CC3)ccc1[N+](=O)[O-]` [Compound 91] belongs no more than 100 nM. As to `O=C(Nc1ccc([N+](=O)[O-])c(N2CCOCC2)n1)c1ccc(S(=O)(=O)NCCO)cc1N1CCC2(CC1)CC2` [Compound 92], the IC50 was no more than 100 nM. The value for `C[C@@H](CO)NS(=O)(=O)c1ccc(C(=O)Nc2ccc([N+](=O)[O-])c(N3CCC(F)(F)CC3)n2)c(N2CCC3(CC2)CC3)c1` [Compound 93] was no more than 100 nM; that for `C[C@H](CO)NS(=O)(=O)c1ccc(C(=O)Nc2ccc([N+](=O)[O-])c(N3CCC(F)(F)CC3)n2)c(N2CCC3(CC2)CC3)c1` [Compound 94] was no more than 100 nM. For the molecule `C[C@@H]1CN(c2nc(NC(=O)c3ccc(S(=O)(=O)N[C@@H](C)CO)cc3N3CCC4(CC3)CC4)ccc2[N+](=O)[O-])CCO1` [Compound 95], the concentration for half-maximal inhibition (IC50) was no more than 100 nM. The value for `C[C@H](CO)NS(=O)(=O)c1ccc(C(=O)Nc2ccc([N+](=O)[O-])c(N3CCO[C@H](C)C3)n2)c(N2CCC3(CC2)CC3)c1` [Compound 96] was no more than 100 nM; that for `C[C@@H]1CN(c2cc(NC(=O)c3cnc(NS(=O)(=O)CCO)cc3N3CCC4(CC3)CC4)ccc2[N+](=O)[O-])CCO1` [Compound 98] was no more than 100 nM. The value for `C[C@H]1CN(c2cc(NC(=O)c3cnc(NS(=O)(=O)CCO)cc3N3CCC4(CC3)CC4)ccc2[N+](=O)[O-])CCO1` [Compound 99] was no more than 100 nM; that for `O=C(Nc1ccc([N+](=O)[O-])c(N2CC(F)(F)C2)c1)c1cnc(NS(=O)(=O)CCO)cc1N1CCC2(CC1)CC2` [Compound 100] was no more than 100 nM.

For `O=C(Nc1ccc([N+](=O)[O-])c(OCCC(F)(F)F)c1)c1cnc(NS(=O)(=O)CCO)cc1N1CCC2(CC1)CC2` [Compound 101], the IC50 is no more than 100 nM.

As to `O=C(Nc1ccc([N+](=O)[O-])c(N2CCC3(CC3)C2)c1)c1cnc(NS(=O)(=O)CCO)cc1N1CCC2(CC1)CC2` [Compound 102], the IC50 was no more than 100 nM. The value for `O=C(Nc1ccc([N+](=O)[O-])c(OC2CCC2)c1)c1cnc(NS(=O)(=O)CCO)cc1N1CCC2(CC1)CC2` [Compound 103] was no more than 100 nM. For the molecule `CC1(F)CCN(c2cc(NC(=O)c3cnc(NS(=O)(=O)CCO)cc3N3CCC4(CC3)CC4)ccc2[N+](=O)[O-])C1` (stereo not drawn) [Compound 104], the IC50 was no more than 100 nM. The value for `O=C(Nc1ccc([N+](=O)[O-])c(N2CCC(F)CC2)c1)c1cnc(NS(=O)(=O)CCO)cc1N1CCC2(CC1)CC2` [Compound 105] was no more than 100 nM; that for `O=C(Nc1ccc([N+](=O)[O-])c(N2CC3CC3C2)c1)c1cnc(NS(=O)(=O)CCO)cc1N1CCC2(CC1)CC2` (stereo not drawn) [Compound 106] was no more than 100 nM; that for `CC(C)(CO)Nc1cc(NC(=O)c2cnc(NS(=O)(=O)CCO)cc2N2CCC3(CC2)CC3)ccc1[N+](=O)[O-]` [Compound 107] was no more than 100 nM.

In the case of `O=C(Nc1ccc([N+](=O)[O-])c(N2CCOCC2)c1)c1cnc(NS(=O)(=O)CCO)cc1N1CCC2(CC1)CC2` [Compound 108], the IC50 was no more than 100 nM. To `C[C@@H](CO)S(=O)(=O)Nc1cc(N2CCC3(CC2)CC3)c(C(=O)Nc2ccc([N+](=O)[O-])c(N3CCC(F)(F)CC3)c2)cn1` [Compound 109] belongs no more than 100 nM.
